ChEMBL document CHEMBL1201862, “PubChem BioAssay data set” (2004)
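Five compound concentrations were applied to cells in 96-well plates for 48 hours; endpoints were derived by simple linear interpolation of the resulting dose-response curve. At the GI50, growth is halved.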 Active and inactive are the calls of the source. Rule as the data show it: active = GI50 up to about 1.1 µM and inactive = higher.

Columns and labels:
Experiment in all cases: NCI tumour cell line growth inhibition, 48 h
SF-295 = system: SF-295
IGROV-1 = system: IGROV-1
A498 = system: A498
UACC-257 = system: UACC-257
SK-OV-3 = system: SK-OV-3
OVCAR-3 = system: OVCAR-3
RPMI-8226 = system: RPMI-8226
HCT-116 = system: HCT-116
NCI-H226 = system: NCI-H226
HCT-15 = system: HCT-15
786-0 = system: 786-0
HT-29 = system: HT-29
MDA-N = system: MDA-N
OVCAR-4 = system: OVCAR-4
HOP-92 = system: HOP-92
RXF 393 = system: RXF 393
KM12 = system: KM12
BT-549 = system: BT-549
HOP-62 = system: HOP-62
SK-MEL-28 = system: SK-MEL-28

| Structure (SMILES) | GI50 (SF-295) | GI50 (IGROV-1) | GI50 (A498) | GI50 (UACC-257) | GI50 (SK-OV-3) | GI50 (OVCAR-3) | GI50 (RPMI-8226) | GI50 (HCT-116) | GI50 (NCI-H226) | GI50 (HCT-15) [µM] | GI50 (786-0) | GI50 (HT-29) | GI50 (MDA-N) | GI50 (OVCAR-4) | GI50 (HOP-92) | GI50 (RXF 393) | GI50 (KM12) | GI50 (BT-549) | GI50 (HOP-62) | GI50 (SK-MEL-28) |
| --- | --- | --- | --- | --- | --- | --- | --- | --- | --- | --- | --- | --- | --- | --- | --- | --- | --- | --- | --- | --- |
| CC#CC#C/C=C1/O[C@]2(CCC(OC(C)=O)CO2)[C@@H]2O[C@H]12 (stereo partly drawn) | 35.4 µM (inactive) | 50.7 µM (inactive) | 22.2 µM (inactive) | 21.6 µM (inactive) | 51.9 µM (inactive) | 29.4 µM (inactive) | 27.2 µM (inactive) | 17.8 µM (inactive) | 20.4 µM (inactive) | 16.6 | 18.2 µM (inactive) | 28.9 µM (inactive) | 28.2 µM (inactive) | 27.9 µM (inactive) | 28.1 µM (inactive) | 18.5 µM (inactive) | 19.9 µM (inactive) | 21.1 µM (inactive) | 37.2 µM (inactive) |  |
| COC(=O)Cc1c([C@H]2[C@H](CC(=O)OC)c3ccccc3N2C(C)=O)[nH]c2ccccc12 | 72.8 µM (inactive) | 34.4 µM (inactive) | > 100 µM (inactive) | > 100 µM (inactive) | > 100 µM (inactive) | > 100 µM (inactive) | 33.6 µM (inactive) | > 100 µM (inactive) | > 100 µM (inactive) | 64.3 | > 100 µM (inactive) | > 100 µM (inactive) | > 100 µM (inactive) |  | > 100 µM (inactive) | > 100 µM (inactive) | > 100 µM (inactive) | 67.6 µM (inactive) | > 100 µM (inactive) | > 100 µM (inactive) |
| COC(NC(=O)Nc1ccc(C)cc1)(C(F)(F)F)C(F)(F)F | 26.5 µM (inactive) | 26.5 µM (inactive) | 30.3 µM (inactive) |  | 26.1 µM (inactive) | 42.8 µM (inactive) | 24.6 µM (inactive) | 29.3 µM (inactive) | 55.8 µM (inactive) |  | 54.2 µM (inactive) | 31 µM (inactive) | 26.4 µM (inactive) | 34.2 µM (inactive) | 33 µM (inactive) | 23.1 µM (inactive) | 34.7 µM (inactive) | 22.9 µM (inactive) | 42.8 µM (inactive) | 42.2 µM (inactive) |
| CC1=Nc2ccccc2OC(C)=C1/N=N/c1ccc2[nH]c(C)nc2c1 | > 100 µM (inactive) | 33.5 µM (inactive) | 24.4 µM (inactive) | > 100 µM (inactive) | > 100 µM (inactive) | > 100 µM (inactive) | > 100 µM (inactive) | > 100 µM (inactive) | > 100 µM (inactive) | > 100 | > 100 µM (inactive) | > 100 µM (inactive) | > 100 µM (inactive) | > 100 µM (inactive) | 44.1 µM (inactive) | 56.1 µM (inactive) | > 100 µM (inactive) | > 100 µM (inactive) | > 100 µM (inactive) | > 100 µM (inactive) |
| CC1(C)OCC(C2OC(On3nnc4ccc(Cl)cc43)C3OC(C)(C)OC23)O1 (stereo not drawn) | > 100 µM (inactive) | > 100 µM (inactive) | 11.7 µM (inactive) | > 100 µM (inactive) | > 100 µM (inactive) | > 100 µM (inactive) | > 100 µM (inactive) | > 100 µM (inactive) | 66.1 µM (inactive) | > 100 | > 100 µM (inactive) | > 100 µM (inactive) | > 100 µM (inactive) | > 100 µM (inactive) | > 100 µM (inactive) | > 100 µM (inactive) | > 100 µM (inactive) | > 100 µM (inactive) | > 100 µM (inactive) | > 100 µM (inactive) |
| CCCCNc1c(CN)cnc2cc(Cl)ccc12 | 14 µM (inactive) | 14.7 µM (inactive) | 15.4 µM (inactive) | 13 µM (inactive) | 14.3 µM (inactive) | 15 µM (inactive) | 16.4 µM (inactive) | 15 µM (inactive) | 16.1 µM (inactive) | 17.1 | 16.7 µM (inactive) | 16.9 µM (inactive) | 16.1 µM (inactive) | 16.6 µM (inactive) | 15.9 µM (inactive) | 14.5 µM (inactive) | 15.5 µM (inactive) | 16.6 µM (inactive) | 14.1 µM (inactive) | 15.6 µM (inactive) |
| COC1CC(OC2OC(CO)C(O)C(O)C2O)/C(=C\C#N)C(O)C1OC (stereo not drawn) | > 100 µM (inactive) | > 100 µM (inactive) | > 100 µM (inactive) | > 100 µM (inactive) | > 100 µM (inactive) | > 100 µM (inactive) | > 100 µM (inactive) | > 100 µM (inactive) | > 100 µM (inactive) | > 100 | > 100 µM (inactive) | > 100 µM (inactive) | > 100 µM (inactive) | > 100 µM (inactive) | > 100 µM (inactive) | > 100 µM (inactive) | > 100 µM (inactive) | > 100 µM (inactive) | > 100 µM (inactive) | > 100 µM (inactive) |
| O=C(Nc1cccc2nsnc12)c1cc2c(cc1Cl)Sc1nccn1S2(=O)=O | 14.1 µM (inactive) | 11.5 µM (inactive) | 13.6 µM (inactive) | 1.81 µM (inactive) | 54.5 µM (inactive) | 1.68 µM (inactive) | 2.26 µM (inactive) | 2.77 µM (inactive) | 25.9 µM (inactive) | 5.19 | 15.9 µM (inactive) | 2.74 µM (inactive) | 14.1 µM (inactive) | 3.31 µM (inactive) | 4.4 µM (inactive) | 4.6 µM (inactive) | 2.08 µM (inactive) | 15.1 µM (inactive) | 1.78 µM (inactive) | 3.01 µM (inactive) |
| Cc1cc(C)c(/N=N/c2c(O)c(S(=O)(=O)O)cc3cc(S(=O)(=O)O)ccc23)cc1C | > 100 µM (inactive) | > 100 µM (inactive) | > 100 µM (inactive) | > 100 µM (inactive) | > 100 µM (inactive) | > 100 µM (inactive) | > 100 µM (inactive) | > 100 µM (inactive) | > 100 µM (inactive) | > 100 | 48.9 µM (inactive) | > 100 µM (inactive) | > 100 µM (inactive) | > 100 µM (inactive) | > 100 µM (inactive) | > 100 µM (inactive) | > 100 µM (inactive) | > 100 µM (inactive) | > 100 µM (inactive) | > 100 µM (inactive) |
| CC(C)(C)N1Cc2ccccc2/C(=C/Sc2ccccc2)C1=O | 17.4 µM (inactive) | 10.1 µM (inactive) | 20 µM (inactive) | 14.3 µM (inactive) | 17.4 µM (inactive) | 12 µM (inactive) | 5.82 µM (inactive) | 7.03 µM (inactive) | 8.83 µM (inactive) | 12.9 | 10.7 µM (inactive) | 17 µM (inactive) | 6.55 µM (inactive) | 7.01 µM (inactive) | 13.3 µM (inactive) | 16.2 µM (inactive) | 17 µM (inactive) | 6.53 µM (inactive) | 17.3 µM (inactive) | 17.5 µM (inactive) |
| CCOc1cn(C2CC(O)C(CO)O2)c(=O)[nH]c1=O (stereo not drawn) |  | > 100 µM (inactive) | 45.8 µM (inactive) | > 100 µM (inactive) | > 100 µM (inactive) | > 100 µM (inactive) | > 100 µM (inactive) | > 100 µM (inactive) | > 100 µM (inactive) | > 100 | > 100 µM (inactive) | > 100 µM (inactive) | > 100 µM (inactive) | > 100 µM (inactive) | > 100 µM (inactive) | > 100 µM (inactive) | > 100 µM (inactive) | > 100 µM (inactive) | > 100 µM (inactive) | > 100 µM (inactive) |
| CC(C)CC(NC(O)[BH2-][N+](C)(C)C)C(=O)NC(Cc1ccccc1)C(=O)N[C@H]1c2ccsc2/C(=N/O)[C@H]1O (stereo partly drawn) | > 100 µM (inactive) | > 100 µM (inactive) | > 100 µM (inactive) | > 100 µM (inactive) | > 100 µM (inactive) | > 100 µM (inactive) | > 100 µM (inactive) | > 100 µM (inactive) | > 100 µM (inactive) | > 100 | > 100 µM (inactive) | > 100 µM (inactive) | > 100 µM (inactive) | > 100 µM (inactive) | > 100 µM (inactive) | > 100 µM (inactive) | > 100 µM (inactive) | > 100 µM (inactive) | > 100 µM (inactive) | > 100 µM (inactive) |
| Oc1ccc(SCc2cc(O)c(O)c(O)c2)cc1 | 15.8 µM (inactive) | 20.5 µM (inactive) | 40.5 µM (inactive) | > 100 µM (inactive) | 65.9 µM (inactive) | 39.4 µM (inactive) | 26.7 µM (inactive) | 17.1 µM (inactive) | 23.7 µM (inactive) | 39.9 | 37 µM (inactive) | 23.5 µM (inactive) | > 10 µM (inactive) |  | > 100 µM (inactive) | 89.3 µM (inactive) | 20.3 µM (inactive) | 25.6 µM (inactive) | 29 µM (inactive) | 92.9 µM (inactive) |
| CO[C@@H]1[C@H](OC(=O)NC(=O)CCl)CC[C@]2(CO2)[C@H]1[C@@]1(C)O[C@@H]1CC=C(C)C [O-CHLOROACETYLCARBAMOYLFUMAGILLOL] | 5.65 µM (inactive) | 12.2 µM (inactive) | 17.2 µM (inactive) | 11 µM (inactive) | 15.3 µM (inactive) | 3.49 µM (inactive) | 6.93 µM (inactive) |  | 19 µM (inactive) | 14.1 | 12.6 µM (inactive) | 5.66 µM (inactive) | 11.4 µM (inactive) | 14.4 µM (inactive) | 15.6 µM (inactive) | 8.36 µM (inactive) | 11.5 µM (inactive) | 14.6 µM (inactive) | 12.9 µM (inactive) | 12.8 µM (inactive) |
